Experimental data reported in US5332742A, “Renin inhibitors” (Abbott Laboratories, priority 1993, dated 1994).

Assays:
[1] = target: T1, human renal renin (Homo sapiens, UniProt P00797); assay: In vitro inhibition of human renal renin (angiotensin I formation measured by radioimmunoassay); format: biochemical; conditions: human renal renin with human angiotensinogen, 37 degrees C., pH 6.5
T1 construct: human renal renin, free from acid proteolytic activity; from tissue; host or cells: human kidney ('renal')
T1 sequence (P00797 67-406): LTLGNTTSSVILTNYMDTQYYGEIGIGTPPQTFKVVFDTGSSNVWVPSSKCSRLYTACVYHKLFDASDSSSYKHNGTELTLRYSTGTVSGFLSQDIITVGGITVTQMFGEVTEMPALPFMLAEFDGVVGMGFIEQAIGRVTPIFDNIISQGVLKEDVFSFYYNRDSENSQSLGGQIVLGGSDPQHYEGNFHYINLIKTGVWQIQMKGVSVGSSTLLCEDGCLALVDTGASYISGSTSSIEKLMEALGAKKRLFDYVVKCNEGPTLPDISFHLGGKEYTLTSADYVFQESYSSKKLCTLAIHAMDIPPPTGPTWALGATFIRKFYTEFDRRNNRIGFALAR
Procedure: At the end of the incubation, the amount of angiotensin I formed is measured by radioimmunoassay and the molar concentration required to cause 50% inhibition, expressed as the IC50 is calculated .

[2] = Mean arterial blood pressure in salt-depleted dogs after i.v. or p.o. dosing; format: in vivo, dog; conditions: salt-depleted male beagle dogs; 10 mg/kg i.v. (in D5W) or 10 mg/kg p.o. (in methylcellulose); FIG. 1A
Procedure: (§1) Male beagle dogs (8-12 kg, Marshall/Hazelton) were converted to a salt-depleted status by dosing on the three consecutive days prior to the experiment with furosemide (Phoenix Pharmaceuticals, 10 mg/kg i.m.) and by placing them on a low sodium diet (approximately 2-5 meq/day; H/D; Hills Pet Products). Prior to the study, each dog was instrumented with an indwelling catheter ana conditioned to stand calmly in a restraining sling for periods of up to 8 hours. On the morning of the experiment, the arteriai catheter was connected to a Sorenson Transpac II® pressure transducer (Abbott Laboratories). For dogs receiving intravenous (i.v.) doses, a catheter (Abbott; 16 ga Venocath) was introduced in a rear leg saphenous vein by venipuncture. For dogs receiving receiving oral (p.o.) doses by garage, an 18 Fr. suction catheter (Mallinckrodt Critical Care) was used. Data samples of systemic hemodynamic variables were acquired by the MI2 computer at 5 minute intervals beginning 90 minutes prior to administration of the test compound and ending 6 hours after dosing. Arterial blood smaples (3.0 ml) to determine plasma drug concentrations and plasma renin activity (PRA) were taken for i.v. doses at -60, -30, 3, 10, 30, 60, 120, 240 and 360 minutes an for p.o. doses at --60, -30, 15, 30, 60, 90, 120, 180 and 360 minutes relative to the time of test compound administration. […]

[3] = target: T2, renin (Canis lupus familiaris, UniProt Q6DYE7); assay: Plasma renin activity (PRA) in salt-depleted dogs after i.v. or p.o. dosing; format: in vivo, dog; conditions: salt-depleted male beagle dogs; 10 mg/kg i.v. (in D5W) or 10 mg/kg p.o. (in methylcellulose); FIG. 1B
T2 construct: from tissue; host or cells: circulating plasma renin of salt-depleted beagle dogs (in vivo)
T2 sequence (Q6DYE7 66-403): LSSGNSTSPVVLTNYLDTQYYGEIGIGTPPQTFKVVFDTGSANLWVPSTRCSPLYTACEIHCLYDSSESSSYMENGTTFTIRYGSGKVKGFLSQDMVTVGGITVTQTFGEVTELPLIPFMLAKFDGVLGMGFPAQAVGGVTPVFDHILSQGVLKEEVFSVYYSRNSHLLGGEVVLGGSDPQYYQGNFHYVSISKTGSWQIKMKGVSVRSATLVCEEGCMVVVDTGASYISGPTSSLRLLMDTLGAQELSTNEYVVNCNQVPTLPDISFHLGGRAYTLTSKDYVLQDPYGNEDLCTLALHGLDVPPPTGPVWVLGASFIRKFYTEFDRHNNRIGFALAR
Procedure: as §1

Structure (SMILES)	IC50 [1] [nM]	mean arterial pressure (MAP) [2]	plasma renin activity (PRA) [3]
CC(C)C[C@H](O)[C@H](O)[C@H](CC1CCCCC1)NC(=O)[C@H](Cc1cscn1)NC(=O)[C@H](Cc1ccccc1)CS(=O)(=O)N1CCNCC1 [Example 6D, (2S)-2-Benzyl-3-(piperazin-4-ylsulfonyl)propionyl-(L)-(4-Thiazolyl)Ala Amide of (2 S, 3R, 4S)-2-Amin0-1-cyclohexyl-3,4-dihydroxy-6-methylheptane]	0.33	–	–
CC(C)C[C@H](O)[C@H](O)[C@H](CC1CCCCC1)NC(=O)[C@H](Cc1cscn1)NC(=O)[C@H](Cc1ccccc1)CS(=O)(=O)N1CC[N+](C)([O-])CC1 [Example 10B, (2S)-2-Benzyl-3-(1-methyl-1-oxo-piperazin-4-ylsulfonyl)propionyl-(L)-(4Thiazolyl)Ala Amide of (2S,3R,4S)-2-Amino-1-cyclohexyl-3,4-dihydroxy-6-methylheptane]	0.3	–	–
CC(C)C[C@H](O)[C@H](O)[C@H](CC1CCCCC1)NC(=O)[C@H](Cc1cscn1)NC(=O)[C@H](Cc1ccccc1)CS(=O)(=O)N1CCNC(=O)C1 [Example 11F]	0.28	–	–
CC(C)C[C@H](O)[C@H](O)[C@H](CC1CCCCC1)NC(=O)[C@H](Cc1cscn1)N(C)C(=O)C(CCc1ccccc1)NS(=O)(=O)N1CCN(C)CC1 (stereo partly drawn) [Example 12F, (4-Methylpiperazin-1-yl) sulfonyl-(Phenylmethyl)alanine-N-Methyl-3-(4-thiazolyl)-L-alanine Amide of (2S,3R,4S)-2-Amino-1-cyclohexyl-3,4-dihydroxy-6-methylheptane]	0.45	–	–
CC(C)C[C@H](O)[C@H](O)[C@H](CC1CCCCC1)NC(=O)[C@H](Cc1cscn1)NC(=O)C(Cc1ccccc1)NS(=O)(=O)N1CCN(C)CC1 (stereo partly shown) [Example 13C]	0.22	–	–
CC(C)C[C@H](O)[C@H](O)[C@H](CC1CCCCC1)NC(=O)[C@H](Cc1cscn1)NC(=O)[C@H](Cc1ccccc1)CS(=O)(=O)N1CCN(C)CC1.CS(=O)(=O)O [Example 17B, (2S)-2-Benzyl-3-(1-methyl-piperazin-4-ylsulfonyl) propionyl-(L)-(4-Thiazolyl)Ala Amide of (2S,3R,4S)-2-Amino-1-cyclohexyl-3,4-dihydroxy-6-methylheptane methanesulfonate salt]	–	effective for reducing blood pressure	inhibits renin in vivo
